One series addresses CK1d (Homo sapiens, UniProt P48730). The settings on record: 1 μM; Run 1, Run 2.
The target of the next series is WNK2 (Homo sapiens, UniProt Q9Y3S1). Briefly: biochemical. The settings on record: read-out: % enzyme activity, 1 μM; Run 1, Run 2.
In the next series the target is CYP2C19 (Homo sapiens, UniProt P33261). The settings on record: read-out: CYP2C19 IC50; human liver microsomes. A general note: Microsomes from liver hold many membrane-bound enzymes, among them those of drug oxidation.
CYP2C19, sequence (P33261 whole entry): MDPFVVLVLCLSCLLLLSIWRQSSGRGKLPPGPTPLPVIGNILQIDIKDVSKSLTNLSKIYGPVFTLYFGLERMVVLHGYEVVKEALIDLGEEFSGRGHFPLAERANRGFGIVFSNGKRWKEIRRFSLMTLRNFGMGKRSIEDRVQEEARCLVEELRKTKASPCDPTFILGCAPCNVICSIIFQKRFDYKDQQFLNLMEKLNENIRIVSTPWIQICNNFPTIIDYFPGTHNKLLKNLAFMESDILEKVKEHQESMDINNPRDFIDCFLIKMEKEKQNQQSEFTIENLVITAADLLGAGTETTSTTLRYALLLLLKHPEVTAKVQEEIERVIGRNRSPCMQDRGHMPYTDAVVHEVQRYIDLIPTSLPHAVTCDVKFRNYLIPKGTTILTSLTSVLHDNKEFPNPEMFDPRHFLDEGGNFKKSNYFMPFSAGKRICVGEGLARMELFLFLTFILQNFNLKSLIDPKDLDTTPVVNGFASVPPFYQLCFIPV
A further series concerns the target T1, LATS1 (Homo sapiens, UniProt O95835).
T1 sequence (O95835 1-1130): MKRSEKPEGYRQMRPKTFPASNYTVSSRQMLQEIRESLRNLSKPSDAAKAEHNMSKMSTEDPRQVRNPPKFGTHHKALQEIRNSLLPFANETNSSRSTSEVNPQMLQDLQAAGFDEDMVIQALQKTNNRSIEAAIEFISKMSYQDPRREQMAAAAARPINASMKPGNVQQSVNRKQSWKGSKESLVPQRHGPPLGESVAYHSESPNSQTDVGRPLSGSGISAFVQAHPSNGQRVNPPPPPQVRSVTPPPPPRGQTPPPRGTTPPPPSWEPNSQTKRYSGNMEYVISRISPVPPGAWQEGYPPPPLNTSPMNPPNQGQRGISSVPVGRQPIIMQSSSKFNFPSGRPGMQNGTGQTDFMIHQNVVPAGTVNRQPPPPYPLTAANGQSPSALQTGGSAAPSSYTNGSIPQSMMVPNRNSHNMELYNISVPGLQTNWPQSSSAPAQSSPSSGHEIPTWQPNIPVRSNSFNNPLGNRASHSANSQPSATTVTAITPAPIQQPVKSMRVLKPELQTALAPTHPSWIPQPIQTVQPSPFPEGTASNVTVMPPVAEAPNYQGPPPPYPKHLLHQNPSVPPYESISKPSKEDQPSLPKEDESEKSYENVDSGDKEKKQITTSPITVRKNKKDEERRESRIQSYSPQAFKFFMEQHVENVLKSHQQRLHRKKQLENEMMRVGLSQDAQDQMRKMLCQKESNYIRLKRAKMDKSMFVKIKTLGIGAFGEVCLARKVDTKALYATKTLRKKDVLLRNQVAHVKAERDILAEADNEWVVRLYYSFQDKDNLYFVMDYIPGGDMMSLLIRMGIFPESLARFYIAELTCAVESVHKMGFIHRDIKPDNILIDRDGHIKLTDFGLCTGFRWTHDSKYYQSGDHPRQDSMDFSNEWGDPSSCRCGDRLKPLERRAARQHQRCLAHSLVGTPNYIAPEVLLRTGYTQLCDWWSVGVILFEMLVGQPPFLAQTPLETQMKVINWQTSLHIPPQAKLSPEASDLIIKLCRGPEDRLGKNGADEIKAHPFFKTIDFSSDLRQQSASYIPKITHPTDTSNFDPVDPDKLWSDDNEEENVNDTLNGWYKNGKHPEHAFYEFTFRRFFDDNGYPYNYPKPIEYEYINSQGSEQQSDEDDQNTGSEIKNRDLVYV
Briefly: biochemical. The following applies: read-out: % enzyme activity, 1 μM; Run 1, Run 2.

The target of another series is CLK1 (Homo sapiens, UniProt P49759). Briefly: biochemical. The settings on record: read-out: % enzyme activity, 1 μM; Run 1, Run 2.
CLK1, sequence (P49759 whole entry): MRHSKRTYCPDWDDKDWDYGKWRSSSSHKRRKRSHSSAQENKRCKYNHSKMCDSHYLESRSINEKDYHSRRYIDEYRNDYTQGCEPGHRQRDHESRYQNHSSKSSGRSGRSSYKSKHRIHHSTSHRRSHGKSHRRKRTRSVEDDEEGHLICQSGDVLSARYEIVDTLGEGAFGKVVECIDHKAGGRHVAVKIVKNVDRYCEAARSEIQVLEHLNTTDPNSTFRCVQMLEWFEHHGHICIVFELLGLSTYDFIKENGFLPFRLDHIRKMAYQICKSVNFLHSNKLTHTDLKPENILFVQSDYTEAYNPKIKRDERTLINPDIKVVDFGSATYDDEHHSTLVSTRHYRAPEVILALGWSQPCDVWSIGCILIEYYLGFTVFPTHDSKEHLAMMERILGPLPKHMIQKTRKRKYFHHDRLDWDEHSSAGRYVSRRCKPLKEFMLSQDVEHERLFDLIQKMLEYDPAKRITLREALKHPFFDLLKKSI
In another series the target is HIPK3 (Homo sapiens, UniProt Q9H422). Briefly: biochemical. The settings on record: read-out: % enzyme activity, 1 μM; Run 1, Run 2.
In a further series the target is T2, TEC (Homo sapiens, UniProt P42680).
T2 sequence (P42680 1-631): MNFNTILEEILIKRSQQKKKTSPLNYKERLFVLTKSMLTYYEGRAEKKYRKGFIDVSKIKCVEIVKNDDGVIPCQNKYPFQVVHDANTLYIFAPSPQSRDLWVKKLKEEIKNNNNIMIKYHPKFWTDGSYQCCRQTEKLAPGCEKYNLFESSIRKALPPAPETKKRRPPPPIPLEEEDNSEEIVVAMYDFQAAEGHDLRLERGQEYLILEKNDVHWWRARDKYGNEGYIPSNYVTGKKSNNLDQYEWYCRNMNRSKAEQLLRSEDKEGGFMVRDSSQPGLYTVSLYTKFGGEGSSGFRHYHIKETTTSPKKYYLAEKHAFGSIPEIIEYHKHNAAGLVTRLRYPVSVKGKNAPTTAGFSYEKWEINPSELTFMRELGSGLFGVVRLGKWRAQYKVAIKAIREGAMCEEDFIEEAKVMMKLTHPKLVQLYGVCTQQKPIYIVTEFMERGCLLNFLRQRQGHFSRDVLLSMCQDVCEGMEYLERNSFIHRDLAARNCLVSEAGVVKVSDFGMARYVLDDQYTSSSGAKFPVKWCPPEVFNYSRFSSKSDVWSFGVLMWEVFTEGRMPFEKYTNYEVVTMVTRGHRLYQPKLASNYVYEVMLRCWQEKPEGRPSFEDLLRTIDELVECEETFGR
The settings on record: 1 μM; Run 1, Run 2.

The target in the next series is RIPK2 (Homo sapiens, UniProt O43353). As to the kind of experiment: biochemical. The settings on record: read-out: % enzyme activity, 1 μM; Run 1, Run 2.
RIPK2, sequence (O43353 whole entry): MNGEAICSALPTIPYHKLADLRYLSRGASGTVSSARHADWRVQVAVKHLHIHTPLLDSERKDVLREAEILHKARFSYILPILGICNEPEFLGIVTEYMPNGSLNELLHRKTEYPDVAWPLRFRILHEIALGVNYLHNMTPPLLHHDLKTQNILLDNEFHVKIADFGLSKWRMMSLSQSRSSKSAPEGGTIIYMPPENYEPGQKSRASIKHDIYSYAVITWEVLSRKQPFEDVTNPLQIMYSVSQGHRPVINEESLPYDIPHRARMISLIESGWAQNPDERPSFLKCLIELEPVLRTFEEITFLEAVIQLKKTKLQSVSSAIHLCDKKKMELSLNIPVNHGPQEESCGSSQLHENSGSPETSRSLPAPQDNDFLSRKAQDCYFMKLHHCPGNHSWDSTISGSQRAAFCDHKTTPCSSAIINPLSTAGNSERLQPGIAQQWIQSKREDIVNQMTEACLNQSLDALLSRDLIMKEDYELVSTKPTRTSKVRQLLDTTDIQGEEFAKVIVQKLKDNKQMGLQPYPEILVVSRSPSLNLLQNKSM
Another series concerns the target MSK1/RPS6KA5 (Homo sapiens, UniProt O75582). The settings on record: 1 μM; Run 1, Run 2.
In another series the target is PKA (Homo sapiens, UniProt P17612). As to the kind of experiment: biochemical. The following applies: read-out: % enzyme activity, 1 μM; Run 1, Run 2.
A further series concerns the target CYP3A4 (Homo sapiens, UniProt P08684). The settings on record: human liver microsomes.
The next series has as its target LIMK2 (Homo sapiens, UniProt P53671). As to the kind of experiment: biochemical. The following applies: read-out: % enzyme activity, 1 μM; Run 1, Run 2.
The next series concerns the target T3, MKK7 (Homo sapiens, UniProt O14733).
T3 sequence (O14733 1-419): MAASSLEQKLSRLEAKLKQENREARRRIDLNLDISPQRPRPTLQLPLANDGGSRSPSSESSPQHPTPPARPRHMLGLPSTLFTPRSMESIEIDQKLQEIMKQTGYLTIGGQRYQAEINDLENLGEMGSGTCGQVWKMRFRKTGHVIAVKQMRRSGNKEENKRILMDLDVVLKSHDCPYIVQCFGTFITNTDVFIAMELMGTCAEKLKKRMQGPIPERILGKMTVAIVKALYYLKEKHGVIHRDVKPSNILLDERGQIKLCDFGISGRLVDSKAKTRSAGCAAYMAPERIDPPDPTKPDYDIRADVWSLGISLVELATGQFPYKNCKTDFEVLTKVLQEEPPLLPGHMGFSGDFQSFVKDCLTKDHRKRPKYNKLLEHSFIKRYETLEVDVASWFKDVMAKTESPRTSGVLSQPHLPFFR
The settings on record: 1 μM; Run 1, Run 2.

The mark [1] stands for this setting: read-out: CYP3A4-Midazolam IC50, substrate midazolam.
The mark [2] stands for this setting: read-out: CYP3A4-Testosterone IC50, substrate testosterone.

“And” between values parts separate entries of the source, which are not always exact repeats. Identical values can stand only once. Like-named read-outs stand apart in the source and are kept apart here.

CYP3A4, sequence (P08684 whole entry): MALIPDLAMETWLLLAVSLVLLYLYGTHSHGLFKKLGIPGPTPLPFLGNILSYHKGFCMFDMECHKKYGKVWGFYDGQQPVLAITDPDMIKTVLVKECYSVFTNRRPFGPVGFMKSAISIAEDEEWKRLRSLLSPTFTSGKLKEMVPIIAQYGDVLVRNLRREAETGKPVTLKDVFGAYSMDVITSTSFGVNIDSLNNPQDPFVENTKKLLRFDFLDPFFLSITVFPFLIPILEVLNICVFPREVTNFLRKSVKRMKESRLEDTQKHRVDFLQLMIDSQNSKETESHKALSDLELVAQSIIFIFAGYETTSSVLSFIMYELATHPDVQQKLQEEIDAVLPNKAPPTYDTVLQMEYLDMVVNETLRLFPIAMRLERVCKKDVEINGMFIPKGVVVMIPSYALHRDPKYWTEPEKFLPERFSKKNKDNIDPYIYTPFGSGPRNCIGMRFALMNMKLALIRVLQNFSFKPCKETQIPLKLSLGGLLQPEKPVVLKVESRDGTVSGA
CK1d, sequence (P48730 whole entry): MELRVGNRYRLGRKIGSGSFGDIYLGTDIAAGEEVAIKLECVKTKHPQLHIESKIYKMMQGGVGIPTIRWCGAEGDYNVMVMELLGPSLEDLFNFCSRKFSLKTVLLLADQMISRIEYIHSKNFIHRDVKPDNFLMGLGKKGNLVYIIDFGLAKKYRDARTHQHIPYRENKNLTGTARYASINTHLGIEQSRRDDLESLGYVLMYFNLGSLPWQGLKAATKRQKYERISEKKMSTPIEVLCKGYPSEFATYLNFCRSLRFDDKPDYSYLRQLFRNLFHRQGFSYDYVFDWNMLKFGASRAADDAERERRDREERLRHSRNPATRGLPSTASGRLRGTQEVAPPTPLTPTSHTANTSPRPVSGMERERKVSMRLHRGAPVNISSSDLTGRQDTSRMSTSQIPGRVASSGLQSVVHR
WNK2, sequence (Q9Y3S1 whole entry, species assumed): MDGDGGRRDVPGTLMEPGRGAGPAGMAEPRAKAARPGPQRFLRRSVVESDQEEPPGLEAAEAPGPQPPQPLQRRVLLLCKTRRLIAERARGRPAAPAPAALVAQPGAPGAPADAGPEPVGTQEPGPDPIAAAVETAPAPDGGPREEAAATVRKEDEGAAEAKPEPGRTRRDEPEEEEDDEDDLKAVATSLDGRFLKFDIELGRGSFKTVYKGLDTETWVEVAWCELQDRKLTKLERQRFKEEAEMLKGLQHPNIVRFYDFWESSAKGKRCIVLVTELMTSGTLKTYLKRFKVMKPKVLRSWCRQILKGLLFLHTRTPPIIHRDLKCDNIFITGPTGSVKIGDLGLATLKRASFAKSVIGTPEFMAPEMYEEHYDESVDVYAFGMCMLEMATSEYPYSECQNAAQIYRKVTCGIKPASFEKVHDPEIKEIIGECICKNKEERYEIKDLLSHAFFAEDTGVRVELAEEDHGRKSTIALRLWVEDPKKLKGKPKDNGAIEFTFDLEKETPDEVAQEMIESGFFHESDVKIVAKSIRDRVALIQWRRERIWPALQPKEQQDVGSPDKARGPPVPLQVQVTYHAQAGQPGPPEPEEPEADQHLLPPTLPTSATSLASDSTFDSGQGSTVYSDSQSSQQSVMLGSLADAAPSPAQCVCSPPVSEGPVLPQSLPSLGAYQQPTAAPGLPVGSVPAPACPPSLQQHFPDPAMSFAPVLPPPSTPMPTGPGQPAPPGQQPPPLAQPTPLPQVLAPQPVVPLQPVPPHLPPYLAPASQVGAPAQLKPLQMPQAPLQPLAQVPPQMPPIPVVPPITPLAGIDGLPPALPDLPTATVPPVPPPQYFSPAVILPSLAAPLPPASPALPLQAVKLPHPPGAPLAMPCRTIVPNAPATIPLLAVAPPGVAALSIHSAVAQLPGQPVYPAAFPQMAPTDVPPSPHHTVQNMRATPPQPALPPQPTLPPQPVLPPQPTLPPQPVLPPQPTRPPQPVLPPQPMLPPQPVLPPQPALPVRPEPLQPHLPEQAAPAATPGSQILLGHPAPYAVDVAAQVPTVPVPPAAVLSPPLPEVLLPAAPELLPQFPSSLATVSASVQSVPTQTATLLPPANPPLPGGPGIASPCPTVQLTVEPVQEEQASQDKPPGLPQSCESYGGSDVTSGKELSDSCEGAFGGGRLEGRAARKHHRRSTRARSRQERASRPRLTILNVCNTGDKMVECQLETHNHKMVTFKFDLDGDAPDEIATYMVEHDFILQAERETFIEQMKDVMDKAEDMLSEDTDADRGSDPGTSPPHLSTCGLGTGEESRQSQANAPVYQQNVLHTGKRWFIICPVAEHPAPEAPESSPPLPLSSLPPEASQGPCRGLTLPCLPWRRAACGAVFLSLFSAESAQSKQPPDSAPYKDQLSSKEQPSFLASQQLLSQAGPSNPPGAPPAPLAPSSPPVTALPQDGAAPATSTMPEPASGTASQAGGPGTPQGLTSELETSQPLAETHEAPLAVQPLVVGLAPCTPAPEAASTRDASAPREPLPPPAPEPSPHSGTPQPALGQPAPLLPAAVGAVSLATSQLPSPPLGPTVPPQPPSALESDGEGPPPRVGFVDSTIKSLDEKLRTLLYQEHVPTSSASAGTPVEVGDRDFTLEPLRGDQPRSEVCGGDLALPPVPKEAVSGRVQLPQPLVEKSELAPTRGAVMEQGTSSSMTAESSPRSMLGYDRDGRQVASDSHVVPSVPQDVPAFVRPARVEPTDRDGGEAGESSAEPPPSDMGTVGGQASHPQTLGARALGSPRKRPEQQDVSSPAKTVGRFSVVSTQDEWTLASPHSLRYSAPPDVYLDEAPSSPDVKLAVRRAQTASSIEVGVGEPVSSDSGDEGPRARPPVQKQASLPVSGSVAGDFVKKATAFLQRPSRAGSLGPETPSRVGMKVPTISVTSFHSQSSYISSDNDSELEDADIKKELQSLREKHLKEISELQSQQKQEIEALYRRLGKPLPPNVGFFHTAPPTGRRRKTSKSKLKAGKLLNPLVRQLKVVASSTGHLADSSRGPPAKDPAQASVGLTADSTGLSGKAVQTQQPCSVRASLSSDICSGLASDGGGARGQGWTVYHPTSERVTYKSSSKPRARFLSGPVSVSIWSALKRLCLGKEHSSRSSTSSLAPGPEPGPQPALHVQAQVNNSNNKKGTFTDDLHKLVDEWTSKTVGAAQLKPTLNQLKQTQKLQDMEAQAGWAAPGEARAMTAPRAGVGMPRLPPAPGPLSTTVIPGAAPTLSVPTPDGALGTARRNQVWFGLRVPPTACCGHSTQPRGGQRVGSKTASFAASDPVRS

With `COc1cc(-c2cncc(-c3ccc(N4CCN(C)CC4)cc3)c2C)cc(F)c1C(N)=O` [Compound 26a, 2-Fluoro-6-methoxy-4-(4-methyl-5-(4-(4-methylpiperazin-1-yl)phenyl)pyridin-3-yl)benzamide], the “% enzyme activity” value at CK1d is listed as 94.27%; at TEC it was 107.42%; at MSK1/RPS6KA5, 82.15%; at MKK7 it was 92.71%. For the same compound, the remaining activity at 1 µM was 95.5% at WNK2; 97.4% on LATS1; 97.8% on CLK1; 97.8% at HIPK3; 71.1% at RIPK2; 97.9% at PKA. In addition, the remaining activity at 1 µM at LIMK2 came to 102%. Further, the IC50 at CYP2C19, at CYP3A4 (setting [1]) and on CYP3A4 (setting [2]) was over 50 µM throughout. Also, in the series with ARAF, the % enzyme activity at 1 μM is 29.3% and 28.8%.

As for `COc1cc(-c2cncc(-c3ccc(N4C[C@@H](C)N(C)[C@@H](C)C4)cc3)c2C)cc(F)c1C(N)=O` [Compound 26c, 2-Fluoro-6-methoxy-4-(4-methyl-5-(4-((3R,5S)-3,4,5-trimethylpiperazin-1-yl)phenyl)pyridin-3-yl)benzamide], the “% enzyme activity” value was 108.05% at CK1d, 106.19% on TEC, 89.44% on MSK1/RPS6KA5 and 97.52% on MKK7. In addition, the remaining activity at 1 µM on WNK2 is 96.9%; at LATS1, 102%; on CLK1 it was 88%; on HIPK3 it was 90.4%; at RIPK2 it was 89.7%; on PKA, 96.9%. On LIMK2, the remaining activity at 1 µM was determined as 97.8%. Moreover, the IC50 on CYP2C19, on CYP3A4 (setting [1]) and at CYP3A4 (setting [2]) was over 50 µM each time. Also, the % enzyme activity at 1 μM with ARAF was 48.1% and 43.3%.
